Results on two molecules are retold here after patent US11384113B2, “Cobalamin derivatives and their use for the treatment of diseases caused by lack of vitamin B12 supply” (Albert-Ludwigs-Universitaet Freiburg, priority 2017, dated 2022).

Changes are numbered by the printed parent chain. Like-named read-outs stand apart in the source and are kept apart here.

Series [1] in a line: Concentration-dependent reaction rate of aquacobalamin with thiol ligand forming thiolatocobalamin (time-resolved UV-visible spectroscopy). Format: physicochemical. Particulars: pH 7.2, l = 1, sodium triflate. As to the method:
The UV-visible spectra of newly synthesized cobalamin derivatives was determined in EPPS buffer (40 mM, pH 7.6, l=1.0 M with sodium triflate). The reaction of aquacobalamin with cysteamine and mercaptopropionylglycine was monitored by time-resolved spectral scanning of reactions containing a fixed amount of aquacobalamin (10-25 μM (micromolar)) and various concentrations of the ligand.
Mercaptopropionylglycine reacted readily with aquacobalamin to form a stable MPGCbl complex at pH 7.2.
A fixed concentration of aquacobalamin was reacted with varying concentrations of the ligand MPG. The reaction was monitored by time-resolved UV-visible spectroscopy for a total of 50 minutes (FIG. 5). The spectral changes were consistent with the conversion of aquacobalamin into MPGCbl (FIG. 5 a) via a mechanism that involves no detectable reaction intermediates. Initial and final spectra are analyzed to confirm the identity of the thiolatocobalamin product (FIG. 5 b). Time courses were generated at the absorption maxima of each species (350 nm, H2OCbl^+, and 372 nm, MPGCbl) (FIG. 5 c).

The target in series [2] is T1, human recombinant CblC wild type (Homo sapiens, UniProt Q9Y4U1).
T1 sequence (Q9Y4U1 1-282): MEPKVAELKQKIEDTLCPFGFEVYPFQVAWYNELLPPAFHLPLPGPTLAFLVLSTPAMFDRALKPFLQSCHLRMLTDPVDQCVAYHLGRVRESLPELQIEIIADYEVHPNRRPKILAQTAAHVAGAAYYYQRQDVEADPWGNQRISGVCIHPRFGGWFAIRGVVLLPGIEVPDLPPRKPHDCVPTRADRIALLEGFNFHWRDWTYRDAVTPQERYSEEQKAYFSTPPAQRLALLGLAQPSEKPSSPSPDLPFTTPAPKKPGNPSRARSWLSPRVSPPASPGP
Format: biochemical. Particulars: for Half-life of beta-axial ligand removal, Wild type CblC: human, pH 7.6. The procedure: (§1) The ability of the newly synthesized Cbl derivatives to serve as substrates for CblC was examined (FIG. 12). CblC activity was measured by UV-visible spectroscopy according to published procedures. Analysis of reaction products was performed by mass spectrometry. We measured dealkylation and de-thiolation of Co—C and Co—S bonded Cbl derivatives, respectively, by wild type and mutant CblC proteins to determine whether these reactions could be supported in patients harboring an abnormal isoform of CblC with low or no enzymatic activity.
The enzymatic activity of CblC in the presence of CyaCbl and MPGCbl as substrates was evaluated under the same experimental conditions utilized to examine dealkylation of MeCbl and AdoCbl. […] The reaction was complete in less than 10 seconds, which is the time it takes to record the first spectrum after mixing of CblC-bound to CyaCbl or MPGCbl with 5 mM GSH (FIG. 12).
(§2) First, the ability of novel cobalamins described herein was tested to act as substrate for wild type CblC and to restore the lost activity of pathogenic variants, such as mutant Arg161Gly, that leads to early-onset form of the cblC disease.

Series [3] addresses T2, human recombinant CblC pathogenic mutant Arg161Gly (Homo sapiens, UniProt Q9Y4U1, R161G).
T2 sequence (Q9Y4U1 1-282 R161G): T1 sequence (Q9Y4U1 1-282) with R161G
Format: biochemical. Particulars: for Product under ambient conditions, Mutant Arg161Gly: dethiolation, 50 μM GSH; for Half-life of beta-axial ligand removal, Mutant Arg161Gly: human, pH 7.6. As to the method: as §1, §2

For series [4], the system named is fibroblasts from healthy subjects. Briefly: MMA in conditioned medium of control fibroblasts. Format: cell-based, human. From the text: (§3) Cultured cells from control (healthy neonatal subjects) or cblC fibroblasts were supplemented without exogenous Cbl (negative control), with commercial CNCbl (current therapy control) or with the newly synthesized cobalamins (test group). The ability of these compounds to support intracellular Cbl metabolism in the absence of CblC was examined by monitoring disease biomarker metabolites Hcy and MMA levels in the conditioned medium.
(§4) The cellular response to treatment with new derivatives CyaCbl and MPGCbl in comparison with current therapeutic form CNCbl was measured. The ability of the new cobalamin derivatives CyaCbl and MPGCbl to achieve metabolic control, i.e. reduction of for example MMA production by cblC fibroblasts in culture, was examined as described in previously published experimental protocols. FIG. 13 provides a comparison of the effect of CNCbl (0.001 mM) versus the same dose of CyaCbl or MPGCbl given to cultured fibroblasts from healthy subjects (HFF, NHDF, PCS, Wiesel, Control) or from cblC patients (WG1801, WG2176, WG3354, GM10011, GM02345B, GM02452C).
(§5) Additional examination of the effect of thiolatocobalamins CyaCbl and MPGCbl and sulfur-containing alkylcobalamin Me-S-MeCbl with respect to structural analogues that are NOT available for therapy was also carried out, for comparative purposes. The results of cellular response (healthy controls and cblC patient fibroblasts) to cobalamin treatment, as reflected by MMA levels is provided in Table 6.

The subject of series [5] is fibroblasts isolated from patients with cblC disease. The experiment in a line: MMA in conditioned medium of cblC patient fibroblasts. Format: cell-based, human.
From the text: as §3, §4, §5

The conditions of series [6]: pH 7.72, l = 0.5, KNO3; cited from earlier work.
Series [7] addresses T1, human recombinant CblC wild type. Format: biochemical. The note with it: dethiolation; 50 μM GSH.
The target in series [8] is T3, human wild type CblC (Homo sapiens, UniProt Q9Y4U1).
T3 sequence (Q9Y4U1 1-282): T1 sequence (Q9Y4U1 1-282)
The experiment in a line: Binding to CblC and conversion to base-off configuration (UV-visible spectrophotometry). Particulars: pH 7.6, EPPS buffer 0.04 M. The procedure:
An important aspect for the bioactivity of the new compounds is their ability to bind to the processing enzyme CblC, and to undergo conversion to the base-off configuration, which enhances their reactivity. This is a critical step in all intracellular pathways of vitamin B12 metabolism that are involved in pathogenesis, and certainly, relevant to the cblC disease itself. […] Binding studies were conducted at pH 7.6 (EPPS buffer, 0.04 M) and analyzed by UV-visible spectrophotometry.

Series [9] can be described thus: UV-visible spectrum of purified cobalamin in water (base-off configuration without CblC). Format: physicochemical. Particulars: after acetone precipitation and vacuum filtration.
Series [10] deals with cultured fibroblasts. The experiment in a line: Cytotoxicity and cellular transport observed in cultured fibroblast experiments. The class given is cell-based, human.
The mark [11] stands for this setting: Controls (group value), after 7 days.
The mark [12] stands for this setting: Controls, after 7 days wash-off period without supplemental cobalamin.
The mark [13] stands for this setting: HFF control fibroblasts, after 7 days.
Setting [14] is: NHDF control fibroblasts, after 7 days.
[15] abbreviates: Wiezel control fibroblasts, after 7 days.
Where [16] appears, read: GM02345B cblC fibroblasts, after 7 days.
The mark [17] stands for this setting: GM02452C cblC fibroblasts, after 7 days.
The mark [18] stands for this setting: GM10011 cblC fibroblasts, after 7 days.
[19] abbreviates: WG1801 cblC fibroblasts, after 7 days.
The mark [20] stands for this setting: WG2176 cblC fibroblasts, after 7 days.
[21] abbreviates: WG3354 cblC fibroblasts, after 7 days.
Where [22] appears, read: cblC patients (group value), after 7 days.
Where [23] appears, read: cblC patients, after 7 days wash-off period without supplemental cobalamin.

In the case of `C/C1=C2N=C(/C=C3N=C(/C(C)=C4\[N-]C(C(CC(N)=O)C4(C)CCC(=O)NCC(C)OP(=O)([O-])OC4C(CO)OC(n5cnc6cc(C)c(C)cc65)C4O)C4(C)N=C1C(CCC(N)=O)C4(C)CC(N)=O)C(CCC(N)=O)C\3(C)C)C(CCC(N)=O)C/2(C)CC(N)=O.NC(CCC(=O)NC(C[S-])C(=O)NCC(=O)O)C(=O)O.[Co+3]` (centres unmarked) [GSCbl, glutathionylcobalamin, reference compound], the “K, concentration-dependent reaction rate (formation from aquacobalamin)” value in [1] is 20.74 M⁻¹ s⁻¹; in [6], 18.09 M⁻¹ s⁻¹. Besides, the “Half-life of beta-axial ligand removal, Wild type CblC” value in [2] was 2.5 min. Also, the “Fold less proficient support of the CblC reaction than MPGCbl and CyaCbl” value in series [2] (wild type and pathogenic variant Arg161Gly) is reported as 4-5 fold. The “Product under ambient conditions, Mutant Arg161Gly” value in series [3] is given as “H2OCbl”. Moreover, in series [3], the “Half-life of beta-axial ligand removal, Mutant Arg161Gly” value was 9.8 min. The “MMA in conditioned medium” value in series [4] (setting [11]) was 0.106 μmol/mg protein; in [4] (setting [12]), 0.134 μmol/mg protein; in series [4] (setting [13]) it was 0.105 μmol/mg protein; in [4] (setting [14]), 0.078 μmol/mg protein; in series [4] (setting [15]), 0.135 μmol/mg protein; in series [5] (setting [16]), 0.223 μmol/mg protein. In addition, the “MMA in conditioned medium” value in series [5] (setting [17]) came to 0.167 μmol/mg protein; in series [5] (setting [18]) it was 0.052 μmol/mg protein; in [5] (setting [19]) it was 0.198 μmol/mg protein; in series [5] (setting [20]), 0.316 μmol/mg protein; in series [5] (setting [21]), 0.269 μmol/mg protein; in series [5] (setting [22]), 0.204 μmol/mg protein. Further, the “MMA in conditioned medium” value in series [5] (setting [23]) is reported as 0.275 μmol/mg protein. The “Product under ambient conditions, Wild type CblC” value in [7] is “H2OCbl”.
Consider `CC([S][Co+2])C(=O)NCC(=O)O.CC1=C2N=C(C=C3N=C(C(C)=C4[N-]C(C(CC(N)=O)C4(C)CCC(=O)NCC(C)OP(=O)([O-])OC4C(CO)OC(n5cnc6cc(C)c(C)cc65)C4O)C4(C)N=C1C(CCC(N)=O)C4(C)CC(N)=O)C(CCC(N)=O)C3(C)C)C(CCC(N)=O)C2(C)CC(N)=O` (centres unmarked) [MPGCbl], for which the “K, concentration-dependent reaction rate (formation from aquacobalamin)” value in series [1] is 39.71 M⁻¹ s⁻¹. Besides, the “Effect of binding to human wild type CblC on configuration” value in series [8] was “induces their base-off configuration”. The “Configuration in the absence of the CblC protein” value in series [9] is “at least a fraction of this Cbl derivative may exist in its base-off configuration”. In series [2] (cobalamin bound to human CblC, in the presence of GSH), the “Product of the reaction” value is “H2OCbl^+”. Also, in [2], the “Half-life of beta-axial ligand removal, Wild type CblC” value is under 0.5 min. The “Product under ambient conditions, Mutant Arg161Gly” value in series [3] is on record as “H2OCbl”. Moreover, the “Half-life of beta-axial ligand removal, Mutant Arg161Gly” value in series [3] stood at 1.5 min. The “MMA in conditioned medium” value in series [4] (setting [11]) amounted to 0.120 μmol/mg protein; in series [4] (setting [12]) it was 0.121 μmol/mg protein; in series [4] (setting [13]), 0.116 μmol/mg protein; in series [4] (setting [14]), 0.096 μmol/mg protein; in series [4] (setting [15]), 0.148 μmol/mg protein; in series [5] (setting [16]) it was 0.182 μmol/mg protein. For the same molecule, the “MMA in conditioned medium” value in series [5] (setting [17]) worked out at 0.190 μmol/mg protein; in [5] (setting [18]), 0.087 μmol/mg protein; in [5] (setting [19]) it was 0.212 μmol/mg protein; in series [5] (setting [20]), 0.216 μmol/mg protein; in [5] (setting [21]) it was 0.183 μmol/mg protein; in series [5] (setting [22]) it was 0.178 μmol/mg protein. The “MMA in conditioned medium” value in series [5] (setting [23]) is 0.185 μmol/mg protein. For the same molecule, in series [5] (0.001 mM, same dose as CNCbl, FIG. 13), the “Reduction of MMA to the levels of healthy fibroblasts, compared with CNCbl” value is on record as “far superior compared to CNCbl”. Moreover, the “Transport into the cells” value in [10] (canonical TC transporter and its cellular receptor CD320) is on record as “transported successfully into the cells”. Besides, the Cytotoxicity result in series [10] (under the experimental conditions of the fibroblast cultures) is “not cytotoxic”. Also, the “Product under ambient conditions, Wild type CblC” value in series [7] is recorded as “H2OCbl”.
